Structures are written as SMILES.

As usually defined, the inhibition is the drop in the measured response relative to a control, in per cent. The term EC50 denotes the concentration at which the effect is half-maximal.

One test concerns the target T1, BRAF (Homo sapiens, UniProt P15056).
T1 construct: purchased Invitrogen
Briefly: In vitro kinase assay (Z'-LYTE), BRAF. It is filed as biochemical. The following applies: read-out: % of inhibition of the kinase compared to the control. In outline: (§1)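 Compounds at a single dose (100 nM; 10 μM for both ABL forms) were run in a fluorescence coupled-enzyme kinase format relying on differential protease sensitivity of phospho versus non-phospho peptide. Reaction progress was measured ratiometrically from the FRET pair.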

For another test, the target named is T2, EGFR (ErbB1) (Homo sapiens, UniProt P00533).
T2 construct: purchased Invitrogen
The test is described as follows: In vitro kinase assay (Z'-LYTE), EGFR (ErbB1). The class given is biochemical. The following applies: read-out: % of inhibition of the kinase compared to the control. In outline: as §1

The next test deals with T3, EGFR (ErbB1) T790M L858R (Homo sapiens, UniProt P00533, L858R/T790M).
T3 construct: purchased Invitrogen
Briefly: In vitro kinase assay (Z'-LYTE), EGFR (ErbB1) T790M L858R. The following applies: read-out: % of inhibition of the kinase compared to the control. It is filed as biochemical. In outline: as §1

For another test, the target named is T4, FGFR2 (Homo sapiens, UniProt P21802).
T4 construct: purchased Invitrogen
Briefly: In vitro kinase assay (Z'-LYTE), FGFR2. It is filed as biochemical. The conditions noted are these: read-out: % of inhibition of the kinase compared to the control. In outline: as §1

The target in another test is T5, KDR (VEGFR2) (Homo sapiens, UniProt P35968).
T5 construct: purchased Invitrogen
The test is described as follows: In vitro kinase assay (Z'-LYTE), KDR (VEGFR2). It is filed as biochemical. The following applies: read-out: % of inhibition of the kinase compared to the control. In outline: as §1

The target of the next test is T6, PDGFRA (PDGFR alpha) (Homo sapiens, UniProt P16234).
T6 construct: purchased Invitrogen
Briefly: In vitro kinase assay (Z'-LYTE), PDGFRA. The class given is biochemical. The conditions noted are these: read-out: % of inhibition of the kinase compared to the control. In outline: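 Z'-LYTE, HEPES pH 7.5/MgCl2/EGTA/BRIJ-35 buffer, 1% DMSO; cpd 100 nM (ABL, ABL T315I: 10 μM); ratiometric FRET read-out after protease development; % inhibition.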

The next test addresses T7, SRC (Homo sapiens, UniProt P12931).
T7 construct: purchased Invitrogen
Briefly: In vitro kinase assay (Z'-LYTE), SRC. It is filed as biochemical. The conditions noted are these: read-out: % of inhibition of the kinase compared to the control. The method, boiled down:
as §1

The target in the next test is T8, ABL (Homo sapiens, UniProt P00519).
T8 construct: purchased Invitrogen
Briefly: In vitro kinase assay (Z'-LYTE), ABL. The class given is biochemical. The following applies: read-out: % of inhibition of the kinase compared to the control. The method, then: (§2) 1) In Vitro Kinase Assays (Table 10 to Table 21)
(§3) The inhibitory activity of the compounds on several kinases including BRAF, EGFR (ErbB1), EGFR (ErbB1) T790M L858R, FGFR2, KDR (VEGFR2), PDGFRA (PDGFR alpha), SRC and other was evaluated by Invitrogen using the Z′-LYTE® technology. Briefly, the Z′-LYTE® biochemical assay employs a fluorescence-based, coupled-enzyme format and is based on the differential sensitivity of phosphorylated and non-phosphorylated peptides to proteolytic cleavage. The peptide substrate is labeled with two fluorophores—one at each end—that make up a FRET pair. A ratiometric method, which calculates the ratio (the Emission Ratio) of donor emission to acceptor emission after excitation of the donor fluorophore at 400 nm, is used to quantitate reaction progress.
(§4) The compounds are screened in 1% DMSO (final) in the well. For 10 point titrations, 3-fold serial dilutions are conducted from the starting concentration. All Peptide/Kinase Mixtures are diluted to a 2× working concentration in the appropriate Kinase Buffer. All ATP Solutions are diluted to a 4× working concentration in Kinase Buffer (50 mM HEPES pH 7.5, 0.01% BRIJ-35, 10 mM MgCl2, 1 mM EGTA). ATP Km apparent is previously determined using a Z′-LYTE® assay.
(§5) Each compound was incubated at a concentration of 100 nM (excepted to test the activity against ABL and ABL T315I for which the compounds were incubated at a concentration of 10 μM) and the tables 10 to 21 summarize the results obtained showing the inhibitory power of a compound.

The target of the next test is T9, ABL T315I (Homo sapiens, UniProt P00519, T315I).
T9 construct: purchased Invitrogen
The test is described as follows: In vitro kinase assay (Z'-LYTE), ABL T315I. The class given is biochemical. The conditions noted are these: read-out: % of inhibition of the kinase compared to the control. The method, then:
as §2, §3, §4, §5

The target of a further test is T10, FGFR1 (Homo sapiens, UniProt P11362).
T10 construct: purchased Invitrogen
Briefly: In vitro kinase assay (Z'-LYTE), FGFR1. The class given is biochemical. The conditions noted are these: read-out: % of inhibition of the kinase compared to the control. The method, then: as §2, §3
(§6) The compounds are screened in 1% DMSO (final) in the well. For 10 point titrations, 3-fold serial dilutions are conducted from the starting concentration. All Peptide/Kinase Mixtures are diluted to a 2× working concentration in the appropriate Kinase Buffer. All ATP Solutions are diluted to a 4× working concentration in Kinase Buffer (50 mM HEPES pH 7.5, 0.01% BRIJ-35, 10 mM MgCl2, 1 mM EGTA). ATP Km apparent is previously determined using a Z′-LYTE® assay. […]

The target in a further test is T11, VEGFR1 (Homo sapiens, UniProt P17948).
T11 construct: purchased Invitrogen
Briefly: In vitro kinase assay (Z'-LYTE), VEGFR1. The class given is biochemical. The conditions noted are these: read-out: % of inhibition of the kinase compared to the control. The method, then:
as §2, §3, §6

The next test addresses T12, PDGFRB (Homo sapiens, UniProt P09619).
T12 construct: purchased Invitrogen
The test is described as follows: In vitro kinase assay (Z'-LYTE), PDGFRB. It is filed as biochemical. The following applies: read-out: % of inhibition of the kinase compared to the control. The method, then: as §2, §3, §6

Another test concerns A549 cell line. The test is described as follows: In vitro cell proliferation assay (MTT), A549. It is filed as cell-based. The following applies: Homo sapiens; A549, 72 hr, MTT; read-out: EC50, anti-proliferative activity. In outline: (§7)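 Duplicate wells of each line were exposed for 72 hr to 10 nM–3 μM compound. HRMEC were plated at 1×10^4 cells per well, cancer cells at 5×10^3.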

The next test has as its system HepG2 cell line. Briefly: In vitro cell proliferation assay (MTT), HepG2. The class given is cell-based. The conditions noted are these: Homo sapiens; HepG2, 72 hr, MTT; read-out: EC50, anti-proliferative activity. In outline: as §7
In another test the test system is HT29 cell line. The test is described as follows: In vitro cell proliferation assay (MTT), HT29. The class given is cell-based. The conditions noted are these: Homo sapiens, HT-29; HT29, 72 hr, MTT; read-out: EC50, anti-proliferative activity. The method, boiled down:
as §7

The next test has as its system BxPC-3 cell line. The test is described as follows: In vitro cell proliferation assay (MTT), BxPC-3. The class given is cell-based. The following applies: Homo sapiens; BxPC-3, 72 hr, MTT; read-out: EC50, anti-proliferative activity. On the procedure:
2) In Vitro Cell Proliferation Assays (Table 22 to Table 35)
Cancer cell lines (5×10^3 cells per well) or HUVEC (1×10^4 cells per well) or HRMEC (1×10^4 cells per well) were distributed in 96-well plates and incubating in duplicate with escalating concentrations (10 nM to 3 μM) of compounds for 72 hr. Cell proliferation was measured using MTT (3[4,5-dimethylthiazol-2-yl]-2,5-diphenyltetrazolium bromide).

For another test, the system named is H1975 cell line. Briefly: In vitro cell proliferation assay (MTT), H1975. It is filed as cell-based. The conditions noted are these: Homo sapiens, NCI-H1975; H1975, 72 hr, MTT; read-out: EC50, anti-proliferative activity. The method, boiled down:
as §7

The next test relates to HUVEC. The test is described as follows: In vitro cell proliferation assay (MTT), HUVEC. The following applies: Homo sapiens, 72 hr, MTT, read-out: EC50, anti-proliferative activity. The class given is cell-based. In outline:
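Anti-proliferative effects on human umbilical vein endothelial cells were assessed by an MTT (3[4,5-dimethylthiazol-2-yl]-2,5-diphenyltetrazolium bromide) readout. Cells (1×10^4 cells per well) in 96-well plates were incubated in duplicate for 72 hr with escalating test compound concentrations spanning 10 nM to 3 μM.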

T6 sequence (P16234 24-1089): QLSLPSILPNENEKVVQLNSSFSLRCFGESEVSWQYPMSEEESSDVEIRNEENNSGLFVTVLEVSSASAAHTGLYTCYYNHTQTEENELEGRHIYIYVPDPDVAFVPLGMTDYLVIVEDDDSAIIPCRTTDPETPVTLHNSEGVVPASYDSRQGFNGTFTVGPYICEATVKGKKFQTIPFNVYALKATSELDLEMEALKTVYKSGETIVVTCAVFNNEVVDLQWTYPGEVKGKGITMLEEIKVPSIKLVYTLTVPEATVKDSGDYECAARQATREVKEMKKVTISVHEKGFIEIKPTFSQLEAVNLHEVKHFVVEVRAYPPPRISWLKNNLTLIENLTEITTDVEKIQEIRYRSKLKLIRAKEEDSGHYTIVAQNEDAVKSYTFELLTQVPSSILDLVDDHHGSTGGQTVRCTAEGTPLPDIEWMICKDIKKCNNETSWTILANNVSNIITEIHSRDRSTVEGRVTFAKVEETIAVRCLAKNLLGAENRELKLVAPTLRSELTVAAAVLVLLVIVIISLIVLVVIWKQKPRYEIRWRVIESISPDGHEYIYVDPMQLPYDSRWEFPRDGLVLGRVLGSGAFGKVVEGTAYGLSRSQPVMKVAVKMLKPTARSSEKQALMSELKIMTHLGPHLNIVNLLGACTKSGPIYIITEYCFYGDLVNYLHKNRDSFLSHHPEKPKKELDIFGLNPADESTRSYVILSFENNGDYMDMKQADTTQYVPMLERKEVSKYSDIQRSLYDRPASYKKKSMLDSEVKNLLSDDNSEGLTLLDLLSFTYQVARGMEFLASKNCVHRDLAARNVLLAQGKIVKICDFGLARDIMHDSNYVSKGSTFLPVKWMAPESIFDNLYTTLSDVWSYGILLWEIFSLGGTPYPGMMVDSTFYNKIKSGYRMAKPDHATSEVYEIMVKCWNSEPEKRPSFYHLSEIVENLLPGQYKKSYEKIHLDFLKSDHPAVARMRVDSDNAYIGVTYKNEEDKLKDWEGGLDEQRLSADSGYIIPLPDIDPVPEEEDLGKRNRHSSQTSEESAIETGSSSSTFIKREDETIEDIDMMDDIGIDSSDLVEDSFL
T12 sequence (P09619 33-1106): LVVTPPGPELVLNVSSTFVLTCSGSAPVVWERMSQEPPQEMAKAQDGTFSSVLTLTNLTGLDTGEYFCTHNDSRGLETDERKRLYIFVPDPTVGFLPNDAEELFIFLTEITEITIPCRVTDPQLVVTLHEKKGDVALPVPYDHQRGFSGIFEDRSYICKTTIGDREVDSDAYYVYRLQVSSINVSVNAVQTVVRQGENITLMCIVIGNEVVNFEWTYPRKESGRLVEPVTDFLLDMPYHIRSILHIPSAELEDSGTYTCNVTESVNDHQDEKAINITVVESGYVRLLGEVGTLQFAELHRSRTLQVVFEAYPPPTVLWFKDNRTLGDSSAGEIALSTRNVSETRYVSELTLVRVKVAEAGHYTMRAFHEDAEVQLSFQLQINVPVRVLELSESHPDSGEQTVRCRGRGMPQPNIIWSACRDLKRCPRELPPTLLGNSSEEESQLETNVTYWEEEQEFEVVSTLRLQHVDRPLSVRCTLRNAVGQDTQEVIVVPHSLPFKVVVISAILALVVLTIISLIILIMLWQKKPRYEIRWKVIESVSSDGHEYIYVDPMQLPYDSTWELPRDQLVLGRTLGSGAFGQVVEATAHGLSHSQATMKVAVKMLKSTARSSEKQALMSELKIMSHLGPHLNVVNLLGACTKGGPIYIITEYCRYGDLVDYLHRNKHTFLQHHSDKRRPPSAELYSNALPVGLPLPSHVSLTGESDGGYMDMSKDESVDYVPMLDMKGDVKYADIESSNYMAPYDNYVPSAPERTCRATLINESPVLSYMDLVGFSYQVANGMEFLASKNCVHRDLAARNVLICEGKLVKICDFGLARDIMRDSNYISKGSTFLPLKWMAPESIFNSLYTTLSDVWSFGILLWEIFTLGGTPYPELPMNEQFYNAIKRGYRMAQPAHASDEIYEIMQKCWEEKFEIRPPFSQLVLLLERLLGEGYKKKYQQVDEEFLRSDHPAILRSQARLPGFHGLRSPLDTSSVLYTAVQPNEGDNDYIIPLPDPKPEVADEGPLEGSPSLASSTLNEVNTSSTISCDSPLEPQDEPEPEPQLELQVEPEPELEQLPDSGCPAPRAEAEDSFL
T11 sequence (P17948 27-1338): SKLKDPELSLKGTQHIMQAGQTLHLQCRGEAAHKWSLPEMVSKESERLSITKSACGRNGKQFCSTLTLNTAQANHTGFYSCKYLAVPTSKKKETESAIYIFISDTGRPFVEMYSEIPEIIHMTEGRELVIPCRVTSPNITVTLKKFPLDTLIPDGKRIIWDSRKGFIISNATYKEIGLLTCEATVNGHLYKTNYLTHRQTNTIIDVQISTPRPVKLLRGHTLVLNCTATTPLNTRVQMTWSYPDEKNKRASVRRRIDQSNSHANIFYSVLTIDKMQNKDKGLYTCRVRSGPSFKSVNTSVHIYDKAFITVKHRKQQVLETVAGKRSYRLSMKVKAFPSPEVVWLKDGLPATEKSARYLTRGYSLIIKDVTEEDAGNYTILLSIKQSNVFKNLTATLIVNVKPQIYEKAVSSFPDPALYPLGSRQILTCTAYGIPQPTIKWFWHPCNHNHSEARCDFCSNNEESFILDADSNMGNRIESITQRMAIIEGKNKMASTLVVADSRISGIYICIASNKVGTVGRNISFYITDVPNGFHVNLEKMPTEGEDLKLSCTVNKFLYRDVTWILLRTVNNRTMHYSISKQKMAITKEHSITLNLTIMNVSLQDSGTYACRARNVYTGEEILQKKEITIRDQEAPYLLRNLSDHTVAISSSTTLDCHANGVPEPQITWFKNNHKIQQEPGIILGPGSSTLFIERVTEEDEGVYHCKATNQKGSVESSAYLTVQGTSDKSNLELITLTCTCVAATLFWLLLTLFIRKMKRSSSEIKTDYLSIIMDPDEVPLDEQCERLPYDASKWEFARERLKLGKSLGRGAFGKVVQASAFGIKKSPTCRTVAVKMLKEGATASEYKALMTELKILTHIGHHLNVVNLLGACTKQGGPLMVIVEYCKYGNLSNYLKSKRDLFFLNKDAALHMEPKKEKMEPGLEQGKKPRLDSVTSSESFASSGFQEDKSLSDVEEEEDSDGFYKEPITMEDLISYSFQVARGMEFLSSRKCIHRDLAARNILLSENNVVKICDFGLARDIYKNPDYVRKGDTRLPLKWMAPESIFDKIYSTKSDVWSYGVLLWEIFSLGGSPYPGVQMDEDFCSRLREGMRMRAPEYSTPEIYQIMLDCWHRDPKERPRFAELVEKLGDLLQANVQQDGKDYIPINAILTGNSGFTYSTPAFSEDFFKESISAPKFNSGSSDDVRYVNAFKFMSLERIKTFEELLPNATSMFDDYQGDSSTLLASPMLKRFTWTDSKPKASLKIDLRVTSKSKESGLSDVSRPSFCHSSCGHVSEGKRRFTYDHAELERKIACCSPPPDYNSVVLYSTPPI
T3 sequence (P00533 25-1210 T790M/L858R): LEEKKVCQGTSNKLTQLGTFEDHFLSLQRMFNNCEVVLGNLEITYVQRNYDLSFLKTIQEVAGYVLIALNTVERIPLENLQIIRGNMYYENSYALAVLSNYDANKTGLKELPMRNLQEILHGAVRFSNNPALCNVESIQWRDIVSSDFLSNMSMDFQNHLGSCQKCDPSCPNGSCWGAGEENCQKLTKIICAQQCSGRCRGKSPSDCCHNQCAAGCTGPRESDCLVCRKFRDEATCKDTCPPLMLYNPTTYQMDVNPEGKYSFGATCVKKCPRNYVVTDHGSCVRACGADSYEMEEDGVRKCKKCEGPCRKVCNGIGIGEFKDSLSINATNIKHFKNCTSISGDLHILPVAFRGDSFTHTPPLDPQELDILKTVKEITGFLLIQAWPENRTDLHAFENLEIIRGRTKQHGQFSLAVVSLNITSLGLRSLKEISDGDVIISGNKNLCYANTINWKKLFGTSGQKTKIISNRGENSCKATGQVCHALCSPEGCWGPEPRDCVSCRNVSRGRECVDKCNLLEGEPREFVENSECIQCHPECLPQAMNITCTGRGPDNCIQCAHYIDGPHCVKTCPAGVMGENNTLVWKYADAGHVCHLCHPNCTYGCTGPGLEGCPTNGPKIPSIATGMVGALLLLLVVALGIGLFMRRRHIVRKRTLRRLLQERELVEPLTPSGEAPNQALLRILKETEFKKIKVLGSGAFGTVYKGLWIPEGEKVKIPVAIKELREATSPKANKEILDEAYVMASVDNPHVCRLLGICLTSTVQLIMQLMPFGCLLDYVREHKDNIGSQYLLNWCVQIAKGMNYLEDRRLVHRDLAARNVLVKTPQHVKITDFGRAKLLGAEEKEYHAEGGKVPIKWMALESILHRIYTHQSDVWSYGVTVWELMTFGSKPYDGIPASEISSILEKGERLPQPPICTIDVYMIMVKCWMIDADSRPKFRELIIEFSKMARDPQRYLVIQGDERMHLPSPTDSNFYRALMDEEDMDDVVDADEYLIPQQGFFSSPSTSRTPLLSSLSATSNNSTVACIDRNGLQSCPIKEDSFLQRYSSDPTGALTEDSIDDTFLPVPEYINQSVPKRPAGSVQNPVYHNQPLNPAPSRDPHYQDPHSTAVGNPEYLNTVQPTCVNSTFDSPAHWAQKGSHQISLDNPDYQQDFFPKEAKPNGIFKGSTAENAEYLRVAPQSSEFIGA

`Cc1ccc(NC(=O)c2ccc(CN3CCN(C)CC3)c(C(F)(F)F)c2)cc1CNc1cnc2[nH]c(C(=O)O)cc2c1` [OR0623, 5-{2-Methyl-5-[4-(4-methyl-piperazin-1-ylmethyl)-3-trifluoromethyl-benzoylamino]-benzylamino}-1H-pyrrolo[2,3-b]pyridine-2-carboxylic acid]: the inhibition at 0.1 µM at BRAF is less than 50%; on EGFR (ErbB1) it was no less than 50%; at EGFR (ErbB1) T790M L858R it was no less than 50%; at FGFR2 it was no less than 50%; on KDR (VEGFR2), no less than 50%; on PDGFRA (PDGFR alpha) it was no less than 50%. The inhibition at 0.1 µM on SRC, on FGFR1, on VEGFR1 and at PDGFRB was no less than 50% throughout. For the same compound, the inhibition at 10 µM at ABL and on ABL T315I was no less than 50% in each case. For the same compound, the concentration giving a half-maximal response (EC50) in the test with A549 cell line, in the test on HepG2 cell line, in the test on HT29 cell line, in the test with BxPC-3 cell line, with H1975 cell line and in the test on HUVEC was no less than 1000 nM in each case.

Source of the values: patent US9403823B2, “Protein kinase inhibitors” (ORIBASE PHARMA, priority 2012, dated 2016).
